Experimental data from patent publication EP4190319A1, “PHARMACEUTICAL COMPOSITION COMPRISING MEMANTINE AND CITICOLINE” (Novamedica Limited Liability Company, priority 2020, dated 2022).

Test system: rats
Experiment: Morris Water Maze test of long-term memory in the model of global transient cerebral ischemia with ligation of common carotid arteries
Format: in vivo
Method: The comparative study of specific pharmacological activity of the pharmaceutical composition proposed in this invention was conducted by comparison with the citicoline mono-preparation on the model of ischemic stroke in rats. For that purpose, a model of global transient cerebral ischemia with ligation of common carotid arteries was selected on the basis of the Handbook on Conducting Pre-Clinical Studies of Therapeutical Agents, ed. by A.N. Mironov. Long-term memory was evaluated with the use of the Morris Water Maze test (Morris R., "J Neurosci Methods", 1984, Vol. 11, No 1. - P. 47-60 [10]). Table. Effect of the preparations under study on long-term memory in rats in the Morris Water Maze test.

Question: With `C[N+](C)(C)CCOP(=O)(O)OP(=O)([O-])OC[C@H]1O[C@@H](n2ccc(N)nc2=O)[C@H](O)[C@@H]1O` [Citicoline, 5'-O-[hydroxy({hydroxy[2-(trimethylammonio)ethoxy]phosphoryl}oxy)phosphoryl]cytidine] as the compound, how does the “Latent period of finding platform” value (mg/kg (citicoline + memantine) 100+0, ischemic stroke model in rats) read?
Answer: Its value is 20.4 ± 7.6 s.

Question: And the “Latent period of finding platform” value (mg/kg (citicoline + memantine) 500+0, ischemic stroke model in rats)?
Answer: Its value is 13.6 ± 3.5 s.

Question: And the “Latent period of finding platform” value (mg/kg (citicoline + memantine) 1,000+0, ischemic stroke model in rats)?
Answer: Its value is 10.4 ± 3.5 s.

Question: Which “Latent period of finding platform” value (mg/kg (citicoline + memantine) 0+2, ischemic stroke model in rats) does the source give for `CC12CC3CC(C)(C1)CC(N)(C3)C2` [Memantine, 3,5-dimethyladamantan-1-amine] here?
Answer: Its value is 27.1 ± 7.8 s.

Question: What about the “Latent period of finding platform” value (mg/kg (citicoline + memantine) 0+10, ischemic stroke model in rats) of the same compound?
Answer: The value was 14.6 ± 5.2 s.

Question: And the “Latent period of finding platform” value (mg/kg (citicoline + memantine) 0+20, ischemic stroke model in rats)?
Answer: The value was 9.2 ± 1.2 s.
